Source: patent US12371454B2, “Cyclic peptide compound having Kras inhibitory action” (priority 2019, dated 2025)
Starred links: 1 amine or outer side, 2 acyl side, 3 side chain; linkers in the order of their positions; H or OH if unused. Positions of bridges follow the written chain, without caps; N, C: chain ends. Non-standard residues stand in square brackets, D forms with d. Residues, ends and D or L forms follow the SMILES beside them. *: point of attachment. hPhe(3-Cl-4-CF3) = N[C@@H](CCc1ccc(C(F)(F)F)c(Cl)c1)C(=O)O; NMePhe(4-Me) = CN[C@@H](Cc1ccc(C)cc1)C(=O)O; NMedβ3hAla = C[C@H](CC(=O)[*:2])N(C)[*:1]; NMeNva(5,5-F2) = CN[C@@H](CCC(F)F)C(=O)O; NMeCha = CN[C@@H](CC1CCCCC1)C(=O)O; NMehLeu = CN[C@@H](CCC(C)C)C(=O)O; Hyp = O=C(O)[C@@H]1C[C@@H](O)CN1; NMeAhp(2) = CCCCC[C@H](NC)C(=O)O; NMeChg = CN[C@H](C(=O)O)C1CCCCC1; NMeI = CC[C@H](C)[C@H](NC)C(=O)O; NMeD = CN[C@@H](CC(=O)O)C(=O)O; NMeL = CN[C@@H](CC(C)C)C(=O)O; NMeNle = CCCC[C@H](NC)C(=O)O; NMeV = CN[C@H](C(=O)O)C(C)C; d(β3hA) = C[C@@H](N)CC(=O)O; NMeS = CN[C@@H](CO)C(=O)O; NMeA = CN[C@@H](C)C(=O)O; Piperidide = C1CCN(*)CC1; Pyrrolidide = C1CCN(*)C1; Ac5c = NC1(C(=O)O)CCCC1; Aze = O=C(O)[C@@H]1CCN1; Sar = CNCC(=O)O; Propyl = CCC*

System: Human pancreatic cancer cell line AsPC-1
Test: Measurement of AsPC-1 cell growth inhibition (AsPC-1 CGI)
Type: cell-based
Conditions: 96 h
Summary of the method: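 AsPC-1 cells in 15% FBS RPMI-1640 were exposed to test compound for 96 hours at 37° C, with CellTiter-Glo as endpoint.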

SMILES | IC50 [nM]
CC[C@H](C)[C@@H]1NC(=O)[C@H](CCC(F)F)N(C)C(=O)C[C@@H](C(=O)N2CCCCC2)N(C)C(=O)[C@H](C(C)C)N(C)C(=O)C2(CCCC2)NC(=O)[C@@H]2CCCN2C(=O)[C@H](CCc2ccc(C(F)(F)F)c(Cl)c2)NC(=O)CN(C)C(=O)[C@H](CC2CCCCC2)N(C)C(=O)[C@@H]2CCN2C(=O)[C@H](C)N(C)C1=O [Compound 1797] ([NMeNva(5,5-F2)]I[NMeA][Aze][NMeCha][Sar][hPhe(3-Cl-4-CF3)]P[Ac5c][NMeV][NMeD]-Piperidide; lactam N-11) | 100 to 500
CC[C@H](C)[C@@H]1NC(=O)[C@H](CC(C)C)N(C)C(=O)C[C@@H](C)N(C)C(=O)[C@H](C(C)C)N(C)C(=O)C2(CCCC2)NC(=O)[C@@H]2CCCN2C(=O)[C@H](CCc2ccc(C(F)(F)F)c(Cl)c2)NC(=O)CN(C)C(=O)[C@H](CC2CCCCC2)N(C)C(=O)[C@@H]2CCN2C(=O)[C@H](C)N(C)C1=O [Compound 1800] (cyclo([Ac5c][NMeV][NMedβ3hAla][NMeL]I[NMeA][Aze][NMeCha][Sar][hPhe(3-Cl-4-CF3)]P)) | 50 to 100
CC[C@H](C)[C@@H]1NC(=O)[C@H](CC(C)C)N(C)C(=O)C[C@@H](C)NC(=O)[C@H](C(C)C)N(C)C(=O)C2(CCCC2)NC(=O)[C@@H]2CCCN2C(=O)[C@H](CCc2ccc(C(F)(F)F)c(Cl)c2)NC(=O)CN(C)C(=O)[C@H](Cc2ccc(C)cc2)N(C)C(=O)[C@@H]2CCN2C(=O)[C@H](C)N(C)C1=O [Compound 1801] (cyclo([Ac5c][NMeV][d(β3hA)][NMeL]I[NMeA][Aze][NMePhe(4-Me)][Sar][hPhe(3-Cl-4-CF3)]P)) | 50 to 100
CCCOC[C@H]1C(=O)N(C)CC(=O)N[C@@H](CCc2ccc(C(F)(F)F)c(Cl)c2)C(=O)N2CCC[C@H]2C(=O)NC2(CCCC2)C(=O)N(C)[C@@H](C2CCCCC2)C(=O)N(C)[C@H](C(=O)N2CCCCC2)CC(=O)N(C)[C@@H](CC(C)C)C(=O)N[C@@H]([C@@H](C)CC)C(=O)N(C)CC(=O)N(C)CC(=O)N1C [Compound 1805, (3S,9S,18S,21S,25S,28S,34S)-3-[2-[3-chloro-4-(trifluoromethyl)phenyl]ethyl]-28-cyclohexyl-21-isobutyl-7,10,13,16,22,26,29-heptamethyl-18-[(1S)-1-methylpropyl]-25-(piperidine-1-carbonyl)-9-(propoxymethyl)spiro[1,4,7,10,13,16,19,22,26,29,32-undecazabicyclo[32.3.0]heptatriacontane-31,1′-cyclopentane]-2,5,8,11,14,17,20,23,27,30,33-undecone] ([NMeL]I[Sar][Sar][NMeS](Propyl)[Sar][hPhe(3-Cl-4-CF3)]P[Ac5c][NMeChg][NMeD]-Piperidide; lactam N-11) | 50 to 100
CC[C@H](C)[C@@H]1NC(=O)[C@H](CC(C)C)N(C)C(=O)C[C@@H](C(=O)N2CCCCC2)N(C)C(=O)[C@H](C(C)C)N(C)C(=O)C2(CCCC2)NC(=O)[C@@H]2CCCN2C(=O)[C@H](CCc2ccc(C(F)(F)F)c(Cl)c2)NC(=O)CN(C)C(=O)[C@H](Cc2ccc(C)cc2)N(C)C(=O)[C@@H]2CCN2C(=O)[C@H](C)N(C)C1=O [Compound 1828] ([NMeL]I[NMeA][Aze][NMePhe(4-Me)][Sar][hPhe(3-Cl-4-CF3)]P[Ac5c][NMeV][NMeD]-Piperidide; lactam N-11) | 100 to 500
CC[C@H](C)[C@@H]1NC(=O)[C@H](CCC(C)C)N(C)C(=O)C[C@@H](C(=O)N2CCCCC2)N(C)C(=O)[C@H](C(C)C)N(C)C(=O)C2(CCCC2)NC(=O)[C@@H]2CCCN2C(=O)[C@H](CCc2ccc(C(F)(F)F)c(Cl)c2)NC(=O)CN(C)C(=O)[C@H](CC2CCCCC2)N(C)C(=O)[C@@H]2CCN2C(=O)[C@H](C)N(C)C1=O [Compound 1833] ([NMehLeu]I[NMeA][Aze][NMeCha][Sar][hPhe(3-Cl-4-CF3)]P[Ac5c][NMeV][NMeD]-Piperidide; lactam N-11) | 100 to 500
CCO[C@@H]1C[C@H]2C(=O)NC3(CCCC3)C(=O)N(C)[C@@H](CC(C)C)C(=O)N(C)[C@H](C)CC(=O)N(C)[C@@H](CC(C)C)C(=O)N[C@@H]([C@@H](C)CC)C(=O)N(C)CC(=O)N(C)CC(=O)N(C)[C@@H](CC3CCCCC3)C(=O)N(C)CC(=O)N[C@@H](CCc3ccc(C(F)(F)F)c(Cl)c3)C(=O)N2C1 [Compound 1851] (cyclo([Ac5c][NMeL][NMedβ3hAla][NMeL]I[Sar][Sar][NMeCha][Sar][hPhe(3-Cl-4-CF3)][Hyp](Et))) | 20 to 50
CC[C@H](C)[C@@H]1NC(=O)[C@H](CC(C)C)N(C)C(=O)C[C@@H](C(=O)N2CCCC2)N(C)C(=O)[C@H](C2CCCCC2)N(C)C(=O)C2(CCCC2)NC(=O)[C@@H]2CCCN2C(=O)[C@H](CCc2ccc(C(F)(F)F)c(Cl)c2)NC(=O)CN(C)C(=O)[C@H](Cc2ccc(C)cc2)N(C)C(=O)[C@@H]2CCN2C(=O)[C@H](C)N(C)C1=O [Compound 1852] ([NMeL]I[NMeA][Aze][NMePhe(4-Me)][Sar][hPhe(3-Cl-4-CF3)]P[Ac5c][NMeChg][NMeD]-Pyrrolidide; lactam N-11) | 20 to 50
CCCCC[C@H]1C(=O)N(C)CC(=O)N[C@@H](CCc2ccc(C(F)(F)F)c(Cl)c2)C(=O)N2CCC[C@H]2C(=O)NC2(CCCC2)C(=O)N(C)[C@@H](C(C)C)C(=O)N(C)[C@H](C(=O)N2CCCCC2)CC(=O)N(C)[C@@H](CC(C)C)C(=O)N[C@@H]([C@@H](C)CC)C(=O)N(C)[C@@H](C)C(=O)N2CC[C@H]2C(=O)N1C [Compound 1854] ([NMeL]I[NMeA][Aze][NMeAhp(2)][Sar][hPhe(3-Cl-4-CF3)]P[Ac5c][NMeV][NMeD]-Piperidide; lactam N-11) | 100 to 500
CCCC[C@H]1C(=O)N(C)[C@H](C(=O)N2CCCCC2)CC(=O)N(C)[C@@H](CC(C)C)C(=O)N[C@@H]([C@@H](C)CC)C(=O)N(C)[C@@H](C)C(=O)N2CC[C@H]2C(=O)N(C)[C@@H](CC2CCCCC2)C(=O)N(C)CC(=O)N[C@@H](CCc2ccc(C(F)(F)F)c(Cl)c2)C(=O)N2CCC[C@H]2C(=O)NC2(CCCC2)C(=O)N1C [Compound 1859] ([NMeL]I[NMeA][Aze][NMeCha][Sar][hPhe(3-Cl-4-CF3)]P[Ac5c][NMeNle][NMeD]-Piperidide; lactam N-11) | 100 to 500
CC[C@H](C)[C@@H]1NC(=O)[C@H]([C@@H](C)CC)N(C)C(=O)C[C@@H](C(=O)N2CCCCC2)N(C)C(=O)[C@H](C(C)C)N(C)C(=O)C2(CCCC2)NC(=O)[C@@H]2CCCN2C(=O)[C@H](CCc2ccc(C(F)(F)F)c(Cl)c2)NC(=O)CN(C)C(=O)[C@H](CC2CCCCC2)N(C)C(=O)[C@@H]2CCN2C(=O)[C@H](C)N(C)C1=O [Compound 1863] ([NMeI]I[NMeA][Aze][NMeCha][Sar][hPhe(3-Cl-4-CF3)]P[Ac5c][NMeV][NMeD]-Piperidide; lactam N-11) | 100 to 500
CC[C@H](C)[C@@H]1NC(=O)[C@H](CC(C)C)N(C)C(=O)C[C@@H](C(=O)N2CCCC2)N(C)C(=O)[C@H](C(C)C)N(C)C(=O)C2(CCCC2)NC(=O)[C@@H]2CCCN2C(=O)[C@H](CCc2ccc(C(F)(F)F)c(Cl)c2)NC(=O)CN(C)C(=O)[C@H](Cc2ccc(C)cc2)N(C)C(=O)[C@@H]2CCN2C(=O)[C@H](C)N(C)C1=O [Compound 1866] ([NMeL]I[NMeA][Aze][NMePhe(4-Me)][Sar][hPhe(3-Cl-4-CF3)]P[Ac5c][NMeV][NMeD]-Pyrrolidide; lactam N-11) | 100 to 500
